Reference: ChEMBL document CHEMBL4725278, “New coumarin/sulfocoumarin linked phenylacrylamides as selective transmembrane carbonic anhydrase inhibitors: Synthesis and in-vitro biological evaluation” (Bioorg Med Chem, 2020)

Columns and labels:
Carbonic anhydrase 2 = Carbonic anhydrase 2 (Homo sapiens, UniProt P00918); assay: Inhibition of recombinant human carbonic anhydrase 2 assessed as inhibition constant preincubated with enzyme for 10 mins by phenol red dye based stopped flow CO2 hydration assay
Carbonic anhydrase 9 = Carbonic anhydrase 9 (Homo sapiens, UniProt Q16790); assay: Inhibition of recombinant human carbonic anhydrase 9 assessed as inhibition constant preincubated with enzyme for 10 mins by phenol red dye based stopped flow CO2 hydration assay
Carbonic anhydrase 12 = Carbonic anhydrase 12 (Homo sapiens, UniProt O43570); assay: Inhibition of recombinant human carbonic anhydrase 12 assessed as inhibition constant preincubated with enzyme for 10 mins by phenol red dye based stopped flow CO2 hydration assay
Sequence of Carbonic anhydrase 12 (O43570 whole entry): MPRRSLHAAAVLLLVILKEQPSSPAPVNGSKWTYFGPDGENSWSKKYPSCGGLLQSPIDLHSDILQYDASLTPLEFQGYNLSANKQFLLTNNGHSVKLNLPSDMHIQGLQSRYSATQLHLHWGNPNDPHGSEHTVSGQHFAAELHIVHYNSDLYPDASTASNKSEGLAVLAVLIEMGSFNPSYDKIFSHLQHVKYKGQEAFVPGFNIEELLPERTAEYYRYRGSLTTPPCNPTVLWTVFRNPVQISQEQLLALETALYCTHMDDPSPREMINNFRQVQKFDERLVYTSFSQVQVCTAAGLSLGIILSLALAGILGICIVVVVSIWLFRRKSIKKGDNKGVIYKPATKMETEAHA

Carbonic anhydrase 1 = Carbonic anhydrase 1 (Homo sapiens, UniProt P00915); assay: Inhibition of recombinant human carbonic anhydrase 1 assessed as inhibition constant preincubated with enzyme for 10 mins by phenol red dye based stopped flow CO2 hydration assay
Sequence of Carbonic anhydrase 1 (P00915 whole entry): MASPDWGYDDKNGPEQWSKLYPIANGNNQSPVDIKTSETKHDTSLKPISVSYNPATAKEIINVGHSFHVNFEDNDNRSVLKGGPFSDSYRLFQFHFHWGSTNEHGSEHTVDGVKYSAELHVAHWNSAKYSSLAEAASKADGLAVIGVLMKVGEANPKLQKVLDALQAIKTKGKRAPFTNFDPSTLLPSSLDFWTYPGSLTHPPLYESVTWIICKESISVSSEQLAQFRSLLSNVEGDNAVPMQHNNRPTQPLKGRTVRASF

Row | Compound | Ki (Carbonic anhydrase 2) [nM] | Ki (Carbonic anhydrase 9) [nM] | Ki (Carbonic anhydrase 12) [nM] | Ki (Carbonic anhydrase 1) [nM]
1 | O=C(/C=C/c1ccc(Cl)cc1)Nc1ccc2oc(=O)ccc2c1 | > 10000 | 88.9 | 343 | > 10000
2 | O=C(/C=C/c1ccccc1OC(F)F)Nc1ccc2oc(=O)ccc2c1 | > 10000 | 384 | 394 | > 10000
3 | O=C(/C=C/c1ccc(F)c(F)c1)Nc1ccc2c(c1)C=CS(=O)(=O)O2 | > 10000 | 720 | 568 | > 10000
4 | O=C(/C=C/c1ccc(F)cc1)Nc1ccc2c(c1)C=CS(=O)(=O)O2 | > 10000 | 517 | 506 | > 10000
5 | COc1cc(/C=C/C(=O)Nc2ccc3c(C)cc(=O)oc3c2)cc(OC)c1OC | > 10000 | 647 | 631 | > 10000
6 | O=C(/C=C/c1cccc([N+](=O)[O-])c1)Nc1ccc2oc(=O)ccc2c1 | > 10000 | 7210 | 557 | > 10000
7 | Cc1cc(=O)oc2cc(NC(=O)/C=C/c3cccc(F)c3)ccc12 | > 10000 | 639 | 539 | > 10000
8 | O=C(/C=C/c1cccc(C(F)(F)F)c1)Nc1ccc2c(c1)C=CS(=O)(=O)O2 | > 10000 | 65.4 | 480 | > 10000
9 | O=C(/C=C/c1cccc(C(F)(F)F)c1)Nc1ccc2oc(=O)ccc2c1 | > 10000 | 88 | 221 | > 10000
10 | O=C(/C=C/c1cccc(F)c1)Nc1ccc2oc(=O)ccc2c1 | > 10000 | 43 | 411 | > 10000
11 | COc1ccc(/C=C/C(=O)Nc2ccc3oc(=O)ccc3c2)c(F)c1 | > 10000 | 472 | 137 | > 10000
12 | O=C(/C=C/c1ccc(F)c(F)c1)Nc1ccc2oc(=O)ccc2c1 | > 10000 | 340 | 206 | > 10000
13 | COc1ccc(/C=C/C(=O)Nc2ccc3oc(=O)ccc3c2)cc1OC | > 10000 | 321 | 15.5 | > 10000
14 | Cc1cc(=O)oc2cc(NC(=O)/C=C/c3ccc(F)c(F)c3)ccc12 | > 10000 | 773 | 699 | > 10000
15 | O=C(/C=C/c1ccccc1OC(F)F)Nc1ccc2c(c1)C=CS(=O)(=O)O2 | > 10000 | 92.8 | 349 | > 10000
16 | O=C(/C=C/c1ccc(C(F)(F)F)cc1)Nc1ccc2oc(=O)ccc2c1 | > 10000 | 91.1 | 236 | > 10000
17 | COc1cc(/C=C/C(=O)Nc2ccc3c(c2)C=CS(=O)(=O)O3)cc(OC)c1OC | > 10000 | 536 | 208 | > 10000

Row | Compound | Ki (Carbonic anhydrase 2) [nM] | Ki (Carbonic anhydrase 9) [nM] | Ki (Carbonic anhydrase 12) [nM] | Ki (Carbonic anhydrase 1) [nM]
18 | Cc1cc(=O)oc2cc(NC(=O)/C=C/c3ccccc3OC(F)F)ccc12 | > 10000 | 488 | 567 | > 10000
19 | COc1ccc(/C=C/C(=O)Nc2ccc3oc(=O)ccc3c2)cc1 | > 10000 | 884 | 427 | > 10000
20 | COc1ccc(/C=C/C(=O)Nc2ccc3c(C)cc(=O)oc3c2)cc1OC | > 10000 | 3040 | 644 | > 10000
21 | COc1ccc(/C=C/C(=O)Nc2ccc3c(c2)C=CS(=O)(=O)O3)c(F)c1 | > 10000 | 80.4 | 399 | > 10000
22 | COc1cc(/C=C/C(=O)Nc2ccc3oc(=O)ccc3c2)cc(OC)c1OC | > 10000 | 157 | 149 | > 10000
23 | NS(=O)(=O)c1ccc(NC(=O)/C=C/c2ccccc2OC(F)F)cc1 |  | 6 |  | 
24 | N#Cc1ccc(/C=C/C(=O)Nc2ccc3c(c2)C=CS(=O)(=O)O3)cc1 | > 10000 | 39.8 | 520 | > 10000
25 | COc1ccc(/C=C/C(=O)Nc2ccc3oc(=O)ccc3c2)c(OC)c1 | > 10000 | 87.4 | 446 | > 10000
26 | Cc1cc(=O)oc2cc(NC(=O)NS(=O)(=O)c3ccc(F)cc3)ccc12 |  | 20.2 | 1.8 | 
27 | O=C(/C=C/c1ccccc1)Nc1ccc2oc(=O)ccc2c1 | > 10000 | 131 | 829 | > 10000
28 | Cc1cc(=O)oc2cc(NC(=O)/C=C/c3ccc(C#N)cc3)ccc12 | > 10000 | 854 | 575 | > 10000
29 | COc1ccc(/C=C/C(=O)Nc2ccc3c(C)cc(=O)oc3c2)c(F)c1 | > 10000 | 817 | 847 | > 10000
30 | Cc1cc(=O)oc2cc(NC(=O)/C=C/c3ccc(F)cc3)ccc12 | > 10000 | 682 | 604 | > 10000
31 | O=C(/C=C/c1ccc(F)cc1)Nc1ccc2oc(=O)ccc2c1 | > 10000 | 40.9 | 265 | > 10000
32 | N#Cc1ccc(/C=C/C(=O)Nc2ccc3oc(=O)ccc3c2)cc1 | > 10000 | 881 | 760 | > 10000
33 | Cc1cc(=O)oc2cc(NC(=O)/C=C/c3ccccc3)ccc12 | > 10000 | 514 | 649 | > 10000
34 | O=C(/C=C/c1cc(Cl)cc(Cl)c1)Nc1ccc2oc(=O)ccc2c1 | > 10000 | 305 | 701 | > 10000
